Laboratory results: patent publication US11708335B2, “Pyrimidine compounds useful as tyrosine kinase inhibitors” (STERNGREENE, INC., priority 2017, dated 2023)
pIC50: −log10 of the molar value.

Columns and labels:
[1] = test system: NCI-H1975 cells; assay: In vitro proliferation (MTT) of NCI-H1975 cells; assay type: cell-based; conditions: FIG. 4; for pIC50: Homo sapiens, NCI-H1975 cells, EGFR(T790M) mutant, read-out: IC50, inhibition of NCI-H1975 cell proliferation; for activity against NCI-H1975 cells (proliferation): NCI-H1975 cells express the EGFR(T790M) mutant
Description: (§1) Example 1: MTT Assay Protocol
(§2) An MTT assay can be performed to screen compounds for suitability as an EGFR inhibitor. A sample MTT assay protocol is as follows:
(§3) SKBR3, BT474, MDA-MB-231, MDA-MB-453, MDA-MB-468, Ml: 5000 cells/well, 5% FBS; NE91, NR6 and NR6 derived cell lines: 2500 cells/well, 5% FBS; H1975: 5000 cells/well, 1% FBS).
(§4) Add 50 μl medium with different concentrations of inhibitors. Incubate at 37° C., 5% CO2 for 72 hrs.
(§5) Replace the medium with 100 μl of fresh medium. Leave at 37° C., 5% CO2 for 4 hrs.
(§6) Add 25 μl of MIT (5 mg/ml stock solution, final concentration 1 mg/ml) to each well. Incubate the microtrays for 2 hours at 37° C.
(§7) Add 100 μl extraction buffer (50% DMF/20% SDS at pH 4.7) to each well.
(§8) Incubate overnight at 37° C. and OD measurements at 570 nm.
(§9) A MTT assay protocol is also described in Hansen et al., “Re-examination and further development of a precise and rapid dye method for measuring cell growth/cell kill,” J. Immunol. Methods 119:203-210 (1989).
(§10) Essays conducted as outlined in Examples 1 and 2.

[2] = test system: A431 cells; assay: In vitro proliferation (MTT) of A431 cells; assay type: cell-based; conditions: A431 cells express the wild type EGFR; FIG. 4
Description: as §1, §2, §3, §4, §5, §6, §7, §8, §9, §10

[3] = biological target: EGFR(L858R/T790M/C797S) (Homo sapiens, UniProt P00533, C797S/L858R/T790M); assay: RBC HotSpot kinase assay, EGFR mutants, 10 μM ATP; assay type: biochemical; conditions: FIG. 3
Description: (§11) Example 2: RBC HotSpot Kinase Assay Protocol
(§12) An RBC HotSpot Kinase Assay can be performed to determine kinase activity data. A sample RBC HotSpot KinaseAssay protocol is as follows:
(§13) Reagent: Base Reaction buffer; 20 mM Hepes (pH 7.5), 10 mM MgCl2, 1 mM EGTA, 0.02% Brij35, 0.02 mg/ml BSA, 0.1 mM Na3VO4, 2 mM DTT, 1% DMSO
(§14) Add required cofactors individually to each kinase reaction.
(§15) Compound handling: Dissolve testing compounds in 100% DMSO to specific concentration. Serial dilution can be conducted using Integra Viaflo Assist in DMSO.
(§16) Prepare substrate in freshly prepared Reaction Buffer.
(§17) Deliver any required cofactors to the substrate solution above.
(§18) Deliver kinase into the substrate solution and gently mix.
(§19) Deliver compounds in 100% DMSO into the kinase reaction mixture by Acoustic technology (Echo550; nanoliter range) and incubate for 20 min at room temp.
(§20) Deliver ^33P-ATP (Specific activity 10 μCi/μl) into the reaction mixture to initiate the reaction.
(§21) Incubate for 2 hours at room temperature.
(§22) Detect radioactivity by filter-binding method.
(§23) Kinase activity data can be expressed as the percent remaining kinase activity in test samples compared to vehicle (dimethyl sulfoxide) reactions. IC50 values and curve fits can be obtained using Prism (GraphPad Software).
as §10

[4] = biological target: EGFR(d746-750/T790M/C797 S) (Homo sapiens, UniProt P00533, C797S/DEL746-750/T790M); assay: RBC HotSpot kinase assay, EGFR mutants, 10 μM ATP; assay type: biochemical; conditions: FIG. 3
Description: as §11, §12, §13, §14, §15, §16, §17, §18, §19, §20, §21, §22, §23, §10

[5] = biological target: EGFR(C797S) (Homo sapiens, UniProt P00533, C797S); assay: RBC HotSpot kinase assay, EGFR mutants, 10 μM ATP; assay type: biochemical; conditions: FIG. 3
Description: as §11, §12, §13, §14, §15, §16, §17, §18, §19, §20, §21, §22, §23, §10

Row | pIC50 [1] | activity on EGFR(L858R/T790M/C797S) [3] | activity on EGFR(d746-750/T790M/C797 S) [4] | activity against EGFR(C797S) [5] | SMILES | activity against NCI-H1975 cells (proliferation) [1] | activity against A431 cells (proliferation) [2] | activity against NCI-H1975 cells (proliferation) ([1]; listed as SG1-105)
2 | – | good activity | good activity | very strong activity | CCOc1cc2ncnc(Nc3ccc(F)c(Cl)c3)c2cc1NC(=O)/C=C/CN(C)CCCO [SGI-078] | better activity | weak activity | –
3 | 6.74 | good activity | good activity | very strong activity | CCOc1cc2ncnc(Nc3ccc(F)c(Cl)c3)c2cc1NC(=O)/C=C/CN(C)CCCOC [SGI-105] | better activity | weak activity | more active than SGI-078
